For experiment [1], the system named is wild-type S. pombe. The experiment in a line: Estimation of minimum inhibitory concentration for S. pombe. In kind it is cell-based, Schizosaccharomyces pombe. The note with it: different concentrations, 6 h incubation. The protocol: Approximately, 1×10^7 cells/ml from overnight grown culture of MBY 104 was inoculated in 20 ml fresh YES medium in 250 ml flasks. The cells were incubated at 25° C. on a shaker in absence or presence of different concentrations of digoxin. A stock of 1 mM standard glycosides (Sigma Aldrich, USA) was prepared by adding 7.8 mg, 3.9 mg, and 7.28 mg of digoxin, digoxigenin, and ouabain, respectively, in 10 ml of 50% ethanol. A working stock of 200 μM solution was prepared by diluting 1 mM stock with fresh YES medium. Further dilutions were made from this working stock by adjusting total volume with YES to 20 ml. Cell density of untreated or treated wild-type yeast cells was checked in terms of absorbance after every one hour over 5 to 6 generations. Experiments were performed in duplicate each time and confirmed by several biological replicates.
Wild-type S. pombe cells were grown in absence or presence of different concentrations of digoxin, digoxigenin, or ouabain and growth kinetics was studied over 6-8 h.

Experiment [2] concerns wild-type M. grisea Guy11 on rice leaf sheath or onion epidermis. The format is in vivo, Magnaporthe grisea. The following applies: summary statement.
Experiment [3] deals with rice or barley leaf tissue. In kind it is in vivo.
In experiment [4] the test system is Magnaporthe Guy11 on detached barley leaf. The format is in vivo, Magnaporthe grisea. The note with it: 200 μM.
In experiment [5] the test system is wild-type S. pombe. The format is cell-based, Schizosaccharomyces pombe.
The test system of a further experiment is Zebra fish larvae heart. In kind it is in vivo, Danio rerio. The following applies: at 26 (h of treatment); control 12.71.
The test system of experiment [6] is S. pombe strain expressing M. grisea Abc3 (MBY 2838). In kind it is cell-based, Schizosaccharomyces pombe. The following applies: MBY 2838, compound in growth medium.

`C[C@H]1O[C@@H](O[C@H]2[C@@H](O)C[C@H](O[C@H]3[C@@H](O)C[C@H](O[C@H]4CC[C@@]5(C)[C@H](CC[C@@H]6[C@@H]5C[C@@H](O)[C@]5(C)[C@@H](C7=CC(=O)OC7)CC[C@]65O)C4)O[C@@H]3C)O[C@@H]2C)C[C@H](O)[C@@H]1O` [digoxin]: the “absorbance of treated S. pombe cells” value with wild-type S. pombe [1] was “decrease in absorbance in a dose dependent manner”. In addition, the “appressorial function of host penetration” value in experiment [2] is given as “blocked appressorial function of host penetration”. Further, the “elicitor-like response in the host plants” value in experiment [3] (exogenous application to leaf tissue) is “induced hypersensitive reaction”. The “H2O2 level as Cerium perhydroxide precipitate (CeCl3 staining, TEM)” value in experiment [3] (treated leaf tissue, 48 h) is “accumulation of Cerium perhydroxide precipitate in the cell wall and cell membrane”. Besides, the “state of host cells upon treatment” value in experiment [3] (treated leaf tissue, TEM) is on record as “plasmolysis”. Further, the “disease symptoms on detached barley leaf” value in experiment [4] (controls symptomatic from day 3) is “failed to elicit any disease symptoms”. Further, the “disease symptoms, leaves inoculated with 100 conidia per droplet” value in experiment [4] (6 dpi, 100 conidia per droplet) is “did not show any symptoms”. Besides, the “severity of disease compared to control leaves” value in experiment [4] (day 6 post inoculation) is “significantly reduced”. Moreover, the “cell density (OD600 nm) of S. pombe, growth kinetics” value with wild-type S. pombe [5] is on record as “inhibitory effects”. Moreover, in the experiment on Zebra fish larvae heart, the “heart rate (time taken for 20 beats)” value was 13.79 s. Also, in experiment [6], the “effect on S. pombe cells expressing M. grisea Abc3p” value is “did not show any effects”.

These data come from patent publication US8389027B2 (priority 2008, dated 2013).
